Data reported in article PMC6353801, “Enhanced Anti-diabetic Effect of Berberine Combined With Timosaponin B2 in Goto-Kakizaki Rats, Associated With Increased Variety and Exposure of Effective Substances Through Intestinal Absorption” (Frontiers in Pharmacology, 2019).
Values joined by “and” are separate entries in the source; they are usually repeats but may differ in a detail not shown here. Identical values can stand only once.

How the values were obtained:
[1] = PK in systemic plasma of Wistar rats (after hepatic clearance) and liver extraction ratio; conditions: for ERliver (liver extraction ratio): (AUCpor−AUCsys)/AUCpor; for increase in AUC on co-administration vs single treatment / Tmax / AUC / Cmax / half-life / AUC ratio between M1 and BBR: systemic plasma; for Tmax: n = 5
[2] = Liver distribution in Wistar rats; conditions: for increase in AUC on co-administration vs single treatment / increase in Cmax on co-administration vs single treatment / AUC ± SE / Cmax / Tmax / exposure (AUC) of metabolite as share of the exposure of BBR: Wistar rats; for increase in AUC on co-administration vs single treatment / increase in Cmax on co-administration vs single treatment / AUC ± SE / Cmax / half-life / Tmax / exposure (AUC) of metabolite as share of the exposure of BBR: liver; for AUC ± SE / Cmax / half-life / Tmax: n = 5; for Cmax / half-life / Tmax: male, Wistar, rat, po; for Cmax: Cmax ± SE; for half-life: T1/2, Wistar rats
[3] = PK in portal vein plasma of Wistar rats (before hepatic clearance); conditions: for AUC / Cmax / Tmax / half-life: male, Wistar, rat, po
[4] = PK in systemic plasma of GK rats after repeated oral administration (day 35); format: in vivo, rat; conditions: GK rats, systemic plasma; for increase in AUC on combination vs single treatment / increase in Cmax on combination vs single treatment: day 35; for Cmax / half-life / Tmax / AUC: male, GK, rat, po, mean ± SE, n = 8; for Cmax / half-life / Tmax: plasma; for half-life: read-out: T1/2 (converted); for Tmax: read-out: Tmax; for AUC: read-out: AUC
Experimental: Analyses were performed on a Shimadzu LCMS-8030 triple quadrupole system (Shimadzu Corp., Japan) equipped with an electrospray ionization source. Data processing was performed using Shimadzu LC–MS LabSolutions (version 5.42 SP4, Shimadzu, Japan). Chromatographic separation was carried out on a Waters CORTECS C18+ column (100 mm × 2.1 mm, 2.7 μm, Ireland) with a security guard C18+ column (5 mm × 2.1 mm, 2.7 μm, Ireland). […] The gradient elution was 85% B from 0 to 2.5 min, 85% B–83% B from 2.5 to 3.0 min, 83% B from 3.0 to 6.0 min, 83% B–40% B from 6.0 to 6.5 min, 40% B from 6.5 to 7.0 min, 40% B–85% B from 7.0 to 7.2 min, and 85% B from 7.2 to 12 min. […] The optimized precursor-to-product ion pairs (collision energy) were in the positive mode as follows: m/z 579.20–255.15 (28 V) for TB-2 (at 4.1 min) and timosaponin A3 (at 6.1 min) and 271.50–154.70 (25 V) for tolbutamide (IS, at 5.8 min). […] If the concentrations of the compounds were over the linear range, the relevant samples were diluted with blank matrix by a factor of 10. […] Four-week-old male GK rats were fed a high-fat diet, and age-matched non-diabetic Wistar rats were fed standard chow as the control group. Under these dietary conditions, blood glucose was estimated each week for 7 weeks in 12-h fasted rats using a portable glucometer (One Touch Sure Step Meter, Johnson & Johnson, United States) by drawing the blood from the tail vein. GK rats with fasting blood glucose levels (FBG) above 16.7 mM were considered as diabetic rats, and only uniformly diabetic rats were used in this study. […] All the drugs were suspended in 0.5% carboxymethylcellulose sodium (CMC-Na) solution for oral gavage (10 ml/kg) once per day (at 9:00) for 6 weeks. Simultaneously, the Wistar and vehicle groups received vehicle over the treatment period. Food consumption and body weight were measured every week throughout the experimental periods. Non-fasting blood glucose (NFBG) levels were determined by collecting blood samples from the tail vein (at 9:00), and FBG levels were determined after a 6-h fast (at 15:00) on days 0, 7, 14, 21, and 42. On day 28, an oral glucose tolerance test (OGTT) was performed after an overnight fast. […] On day 42, the rats were anesthetized with urethane (1.4 g/kg, dissolved in saline) after an overnight fast and were sacrificed to collect the liver, kidney, heart, and spleen. The organs were weighed after washing with saline and drying to calculate the organ coefficient, namely, the ratio between the weight of organs and the body in each rat. The liver samples were diluted with 3 volumes (0.5 g/1.5 ml) of saline and homogenized. The liver homogenates and plasma samples (100 μl) were precipitated with three volumes of acetonitrile (containing 10 μg/ml tolbutamide). […] Then, 100 μl of the original mobile phase was added, and the samples were vortexed for 5 min and centrifuged at 13,000 rpm at 4°C for 10 min. Finally, the supernatant was used for HPLC–QQQ–MS/MS analysis. A non-compartmental analysis was performed using WinNonlin software (Pharsight 6.2, Raleigh, NC, United States) to calculate the PK parameters. The significance of PK parameters in normal rats, generated by the sparse method in WinNonlin, was assessed with Welch’s unequal variances t-test. The significance of the other results was assessed using two-tailed Student’s t-tests. Statistical significance was defined as P < 0.05.

[5] = tested on: GK rats; test: Oral glucose tolerance test (OGTT) in GK rats on day 28; format: in vivo, rat; conditions: after 4 weeks of treatment, glucose 2 g/kg oral
Experimental: Four-week-old male GK rats were fed a high-fat diet, and age-matched non-diabetic Wistar rats were fed standard chow as the control group. Under these dietary conditions, blood glucose was estimated each week for 7 weeks in 12-h fasted rats using a portable glucometer (One Touch Sure Step Meter, Johnson & Johnson, United States) by drawing the blood from the tail vein. GK rats with fasting blood glucose levels (FBG) above 16.7 mM were considered as diabetic rats, and only uniformly diabetic rats were used in this study. […] All the drugs were suspended in 0.5% carboxymethylcellulose sodium (CMC-Na) solution for oral gavage (10 ml/kg) once per day (at 9:00) for 6 weeks. Simultaneously, the Wistar and vehicle groups received vehicle over the treatment period. Food consumption and body weight were measured every week throughout the experimental periods. Non-fasting blood glucose (NFBG) levels were determined by collecting blood samples from the tail vein (at 9:00), and FBG levels were determined after a 6-h fast (at 15:00) on days 0, 7, 14, 21, and 42. On day 28, an oral glucose tolerance test (OGTT) was performed after an overnight fast. […] On day 42, the rats were anesthetized with urethane (1.4 g/kg, dissolved in saline) after an overnight fast and were sacrificed to collect the liver, kidney, heart, and spleen. The organs were weighed after washing with saline and drying to calculate the organ coefficient, namely, the ratio between the weight of organs and the body in each rat.

[6] = Wistar rats, oral BBR 66.7 mg/kg alone
[7] = Wistar rats, oral BBR+TB-2 (100 mg/kg)
[8] = Wistar rats, TB-2+BBR treatments
[9] = male, Wistar, rat, plasma, po, 66.7 mg/kg, Tmax, Wistar rats, single oral BBR 66.7 mg/kg alone
[10] = male, Wistar, rat, po, 66.7 mg/kg
[11] = male, Wistar, rat, po, 100 mg/kg
[12] = male, Wistar, rat, po, 100 mg/kg, Tmax, Wistar rats, single oral BBR+TB-2 (100 mg/kg)
[13] = single oral BBR 66.7 mg/kg alone
[14] = single oral BBR+TB-2 (66.7+33.3 mg/kg)
[15] = 33.3 mg/kg, single oral BBR+TB-2 (66.7+33.3 mg/kg)
[16] = 66.7 mg/kg, single oral BBR 66.7 mg/kg alone
[17] = 33.3 mg/kg, day 35, oral BBR+TB-2 (66.7+33.3 mg/kg)
[18] = 66.7 mg/kg, day 35, oral BBR 66.7 mg/kg alone

## COc1ccc2cc3[n+](cc2c1OC)CCc1cc2c(cc1-3)OCO2 [BBR, berberine]
[1]; [6]
  ERliver (liver extraction ratio): 87.3%
[1]; [7]
  ERliver (liver extraction ratio): 90.0%
[1]; Wistar rats, BBR treatments
  AUC in portal vein plasma, fold higher than in systemic plasma: 6.9 fold
[1]; [8]
  AUC in portal vein plasma, fold higher than in systemic plasma: 9.1 fold
[1]; Wistar rats, single or combination treatments
  AUC in portal vein plasma, fold higher than in systemic plasma (discussion): approximately 10 fold
[1]; Wistar rats
  increase in AUC on co-administration vs single treatment: didn’t increase
[1]; Wistar rats, single oral BBR 66.7 mg/kg alone
  Tmax: 0.2 h
[1]; [9]
  Tmax: 0.167 h
[1]; [10]
  AUC: 25.1 ± 4.1 ng·h/mL
  Cmax: 11.1 ± 3.4 ng/mL
  half-life: 1.9 h
[1]; [11]
  AUC: 42.1 ± 11.7 ng·h/mL
  Cmax: 10.8 ± 3.9 ng/mL
  half-life: 2.3 h
[1]; [12]
  Tmax: 2 h
[2]
  increase in AUC on co-administration vs single treatment: didn’t elicit statistical significance
  increase in Cmax on co-administration vs single treatment: 136%
[2]; [13]
  AUC ± SE: 3255.1 ± 247.5 h ∗ ng/g
[2]; [14]
  AUC ± SE: 4600.3 ± 645.1 h ∗ ng/g
[2]; [15]
  Cmax: 1880 ± 418 ng/g
  half-life: 6.9 h
  Tmax: 2 h
[2]; [16]
  Cmax: 795 ± 157 ng/g
  half-life: 14.8 h
  Tmax: 2 h
[2]; normal rats, in the plasma and liver
  improvement of levels on co-administration: 41–114%
[3]; Wistar rats
  increase in AUC on co-administration vs single treatment: 114%
[3]; 66.7 mg/kg
  AUC: 198 ± 22.2 ng·h/mL
  Cmax: 63.1 ± 18.5 ng/mL
  Tmax: 2 h
  half-life: 9.8 h
[3]; 100 mg/kg
  AUC: 424 ± 60.5 ng·h/mL
  Cmax: 145 ± 50.3 ng/mL
  Tmax: 2 h
  half-life: 10.5 h
[4]
  increase in AUC on combination vs single treatment: 107%
  increase in Cmax on combination vs single treatment: 695%
[4]; [17]
  Cmax: 42.2 ± 17.4 ng/mL
  half-life: 9.3 ± 2.5 h
  Tmax: 0.9 ± 0.1 h
  AUC: 155 ± 59.7 ng·h/mL
[4]; [18]
  Cmax: 5.3 ± 0.4 ng/mL
  half-life: 28.1 ± 11.7 h
  Tmax: 4.6 ± 1.5 h
  AUC: 74.8 ± 3.5 ng·h/mL
[5]
  decrease in the AUC of blood glucose in OGTT vs vehicle: didn’t significantly decrease
  decrease of blood glucose levels in OGTT at 30 min vs vehicle: 24%

## COc1ccc2cc3[n+](cc2c1O)CCc1cc2c(cc1-3)OCO2 [M1, Berberrubine]
[1]; [6]
  ERliver (liver extraction ratio): 81.9%
[1]; [7]
  ERliver (liver extraction ratio): 81.3%
[1]; Wistar rats, BBR treatments
  AUC in portal vein plasma, fold higher than in systemic plasma: approximately fivefold
  AUC ratio between M1 and BBR: 40.2%
[1]; [8]
  AUC in portal vein plasma, fold higher than in systemic plasma: approximately fivefold
  AUC ratio between M1 and BBR: 46.8%
[1]; Wistar rats
  increase in AUC on co-administration vs single treatment: 95%
[1]; [9]
  Tmax: 6 h
[1]; [10]
  AUC: 10.1 ± 0.6 ng·h/mL
  Cmax: 1 ± 0.2 ng/mL
  half-life: 5.8 h
[1]; [11]
  AUC: 19.7 ± 2.9 ng·h/mL
  Cmax: 2 ± 0.2 ng/mL
  half-life: 1.9 h
[1]; [12]
  Tmax: 9 h
[2]
  increase in AUC on co-administration vs single treatment: 282%
  increase in Cmax on co-administration vs single treatment: 109%
[2]; TB-2+BBR treatments
  exposure (AUC) of metabolite as share of the exposure of BBR: 77% and 77.5%
[2]; [13]
  AUC ± SE: 932.5 ± 155.4 h ∗ ng/g
[2]; [14]
  AUC ± SE: 3565.3 ± 256.7^∗∗∗ h ∗ ng/g
[2]; single treatment (On TB-2 treatments)
  exposure (AUC) of metabolite as share of the exposure of BBR: 29% and 28.6%
[2]; [15]
  Cmax: 238 ± 39.5 ng/g
  half-life: 4.2 h
  Tmax: 6 h
[2]; [16]
  Cmax: 114 ± 10.6 ng/g
  half-life: 4.6 h
  Tmax: 4 h
[3]; Wistar rats
  increase in AUC on co-administration vs single treatment: 89%
  increase in Cmax on co-administration vs single treatment: 105%
[3]; Wistar rats, BBR treatments
  AUC ratio between M1 and BBR: 28.1%
[3]; [8]
  AUC ratio between M1 and BBR: 24.9%
[3]; 66.7 mg/kg
  AUC: 55.7 ± 3.5 ng·h/mL
  Cmax: 3.5 ± 1 ng/mL
  Tmax: 6 h
  half-life: 9.7 h
[3]; 100 mg/kg
  AUC: 106 ± 6.2 ng·h/mL
  Cmax: 7.2 ± 1.5 ng/mL
  Tmax: 9 h
  half-life: 7 h
[4]; BBR treatments
  levels of M1 as share of the parent drug: 75%
[4]; TB-2+BBR treatments
  levels of M1 as share of the parent drug: 61%
[4]
  increase in AUC on combination vs single treatment: didn’t significantly increase
  increase in Cmax on combination vs single treatment: didn’t significantly increase
[4]; [17]
  Cmax: 6.6 ± 2 ng/mL
  half-life: 23.9 ± 7.4 h
  Tmax: 9.4 ± 1.2 h
  AUC: 94.9 ± 26.4 ng·h/mL
[4]; [18]
  Cmax: 4.3 ± 1.7 ng/mL
  half-life: 100 ± 92.2 h
  Tmax: 10.4 ± 3.1 h
  AUC: 56.3 ± 18.5 ng·h/mL
